Measurements taken from patent publication US6559288B1, “Ninjurin” (Washington University, priority 1996, dated 2003).
Where no end group is shown, it is not given here.

How the values were obtained:
[1] = test system: ninjurin-expressing Jurkat cell transfectants; experiment: Inhibition by synthetic peptides of ninjurin-mediated aggregation of ninjurin-expressing Jurkat cell transfectants; type: cell-based; settings: for inhibition of ninjurin-mediated adhesion relative to wild type peptide 6: single amino acid substitutions in residues 26 to 37, dose-dependent test
Description: (§1) Cell adhesion assays. […] Aggregation assays were performed using Jurkat cells (Shimizu et al., (1990) Nature 345, 250-253) stably transfected with pCMV-ninjurin or pCMVneo (nonrecombinant control). The cells were washed twice with RPMI 1640 containing 5 mM Hepes buffer, suspended to a concentration of 2×10^6 cells/ml in RPMI1640 with 10% FCS, and 100 μl of the cell suspension were added to each well of a flat-bottomed 96-well microtiter plate. The formation of aggregates was examined after 1 hr using phase contrast microscopy. […] The ninjurin positive cells were stained red with 1 mM CMTMR (5-(and-6)-(((4-chloromethyl)benzoyl)amino) tetramethylrhodamine) and control cells were stained green with 1 mM CMFTA (5-chloromethylfluoresceindiacetate) as described in the manufacturer's protocol (Molecular Probes). The cells were resuspended to 1×10^6 cells/ml, and 3 ml of the mixed cell suspension was allowed to form aggregates in 6-well culture plates. The composition of the aggregates was monitored by fluorescence microscopy.
To directly investigate whether the N-terminal extracellular hydrophilic region is responsible for the observed homophilic adhesion, partially overlapping synthetic peptides whose sequences collectively encompass the entire predicted ninjurin extracellular domain were tested for their ability to inhibit the ninjurin-mediated adhesion. Aggregation assays with the ninjurin-expressing Jurkat cell transfectants were performed, and the degree of aggregation was examined after 60 minutes by measuring the number of cells incorporated in aggregates. Peptide 2 inhibited aggregation at a concentration of 0.1 mg/ml, and aggregation was completely abolished at concentrations above 1 mg/ml. In constrast, peptides 1 and 4 had no effect on aggregation at either of these concentrations.
To further delimit the site of interaction, an additional 4 peptides (peptides 5 through 8) were tested for their ability to inhibit ninjurin-mediated aggregation (Data not shown). […] To identify the amino acids most critical for ninjurin-mediated adhesion, peptides (9-15) stretching from residue 26 to 37, each containing single amino acid mutations, were tested in the aggregation assay. The ability of each of these peptides to inhibit ninjurin-mediated adhesion in a dose-dependent manner was examined. The seven residues between prolines 27 and 35 (P27 and P35) were most important.

[2] = test system: DRG neurons; experiment: DRG neuron/CHO cell co-culture neurite outgrowth; type: cell-based, rat; settings: for inhibition of the neurite outgrowth promoting effect of ninjurin: peptides 0.5 mg/ml, E17 rat DRG neurons on CHO cells expressing ninjurin
Description: Cell culture and transfection. Chinese hamster ovary (CHO) cells were cultured in F-12 medium supplemented with 10% fetal calf serum (FCS). T cell leukemia cells (Jurkat) were grown in RPMI 1640 with 10% FCS. The expression vector pCMV-ninjurin was constructed by inserting the ninjurin cDNA into the plasmid pCMVneo (Brewer, C. B. (1994). Methods in Cell Biol. 43, 233-245). The pCMVneo or pCMV-ninjurin plasmids was transfected into CHO cells via calcium phosphate precipitation and into Jurkat cells via electroporation. Stable transfectants were selected by growth in medium containing G418 (400 μg/ml) and individual clones were isolated by limiting dilution. […] Primary cultures of neurons from dorsal root ganglia (DRG) were prepared from E17 rat embryos as previously described (Eichler et al., (1989) Brain Res 482, 340-346). Dissociated neurons were plated on confluent monolayers of either control CHO cells or CHO cell expressing ninjurin in 24-well plates. Cultures were grown in a medium which consists of 90% Eagles minimal essential medium (Gibco), 10% FCS, 20 μg/ml each of fluoro-deoxyuridine and uridine, and 50 ng/ml mouse NGF (gift from E. Johnson, Washington U.). Six hr after plating, the cells were fixed with 4% paraformaldehyde in PBS, and immunohistochemistry using anti-neurofilament H antibodies was performed. Following previously established criteria (Gennarini et al., (1991) Neuron 6, 595-606), approximately 50 neurites were chosen for measurement which each emerged from a single distinguishable cell body, were longer than the diameter of the neuronal cell body, and were identifiable over their entire length. The length of each neurite was measured after tracing them from the photomicrographs onto grided (2 mm) transparency film. Statistical analysis was performed using Sigma Plot (version 3.0). […]
Ninjurin-stimulated neurite outgrowth is mediated through the adhesion motif. […] The neuronal cultures were treated with peptides (0.5 mg/ml) corresponding to either the native or mutant sequences of the ninjurin adhesion motif, and neurite extension was monitored.

[3] = test system: Jurkat cells; experiment: Aggregation assay with Jurkat cells stably transfected with pCMV-ninjurin; type: cell-based
Description: as §1
Ninjurin mutants fail to support aggregation. […] To investigate these possibilities, Jurkat cell lines expressing ninjurin molecules containing a double mutation (Arg28 to Asn and Asn29 to Ala) in the ninjurin adhesion motif was generated. […]

[4] = target: the molecule itself; experiment: aggregation assay, Jurkat cells stably transfected with pCMV-ninjurin against pCMVneo control
Description: as §1, with “250–253)” for “250-253)”, “2 ×10^6” for “2×10^6”, “µl” for “μl”, “1 ×10^6” for “1×10^6”

[5] = test system: CHO cells; experiment: Aggregation assay with ninjurin transfected CHO cells; type: cell-based, Chinese hamster; settings: counted at 15 min intervals, 37° C.
Description: For aggregation experiments using CHO cells, cells (ninjurin transfected and control) were harvested from confluent plates by treatment with trypsin, washed with F-12 medium, and resuspended at 1×10^6 cells/ml in F-12 with 10% FCS. Aggregation assays were performed on a rotary shaker at 80 rpm. Quantitation of aggregate formation was monitored at 15 min intervals by counting the number of particles using a hemocytometer (Takeichi, M. (1977). J. Cell. Biol. 75, 464-474). The extent of the aggregate formation is inversely proportional to the number of particles, and was determined by calculating an index Nt/No, where Nt and No were the total particle numbers at incubation times t and 0, respectively (Takeichi, 1977). All of the aggregation experiments were performed at 37° C.

[6] = ninjurin-expressing Jurkat transfectants, aggregation examined after 60 minutes

Which “inhibition of ninjurin-mediated adhesion relative to wild type peptide 6” value [1] does the source give for “Peptide 14: residues 26 to 37 with substitution of Asn33 for Leu33 (SEQ ID NO:19) (PPRWGLRLRPIN; Rat)” here?
Its value is “more effective”.

What about the “inhibition of ninjurin-mediated adhesion relative to wild type peptide 6” value ([1]; listed as Asn-33 to Leu33) of the same molecule?
Its value is “greater inhibitory activity than wild type”.

For “peptide containing a mutation in this sequence: peptide with a mutant sequence of the ninjurin adhesion motif; which mutation is not stated (PPRWGLRNRPIN; Rat)”, which “inhibition of the neurite outgrowth promoting effect of ninjurin” value [2] is on record?
The value was “no significant inhibitory effect”.

Which “inhibition of ninjurin-mediated adhesion relative to wild type peptide 6” value [1] does the source give for “11: residues 26 to 37 with substitution of Gly29 to Ala29 (SEQ ID NO:16) (PPRWALRNRPIN; Rat) [Peptide 11]” here?
The value was “did not exhibit altered inhibition”.

“10: residues 26 to 37 with substitution of Trp29 for Ala29 (SEQ ID NO:15) (PPRAGLRNRPIN; Rat) [Peptide 10]” was tested. Which “inhibition of ninjurin-mediated adhesion relative to wild type peptide 6” value [1] did it give?
Its value is “less active”.

Which “aggregate formation in the presence of EDTA” value ([3]; ninjurin-expressing Jurkat cells, 1 mM EDTA) does the source give for `O=C(O)CN(CCN(CC(=O)O)CC(=O)O)CC(=O)O` [EDTA, reference compound] here?
The value was “no aggregates were detected”.

For “12: residues 26 to 37 with substitution of Leu31 to Asn31 (SEQ ID NO:17) (PPRWGNRNRPIN; Rat) [Peptide 12]”, which “inhibition of ninjurin-mediated adhesion relative to wild type peptide 6” value [1] is on record?
The value was “did not exhibit altered inhibition”.

What does the source list for PPRWGLRNRPIN [Peptide 6]?
inhibitory activity on ninjurin-mediated aggregation compared with other peptides [1]: comparable to peptides 2 or 3; concentration at which aggregation was completely abolished [1, 6]: above 2 mg/ml; concentration at which aggregation was inhibited [1, 6]: higher than 0.4 mg/ml; inhibition of the neurite outgrowth promoting effect of ninjurin [2]: inhibited

With “9: residues 26 to 37 with substitution of Arg28 to Asn28 (SEQ ID NO:14) (PPNWGLRNRPIN; Rat) [Peptide 9]” as the molecule, how does the “inhibition of ninjurin-mediated adhesion relative to wild type peptide 6” value [1] read?
Its value is “less active”.

For “15: residues 26 to 37 with substitution of Arg34 for Asn34 (SEQ ID NO:20) (PPRWGLRNNPIN; Rat) [Peptide 15]”, which “inhibition of ninjurin-mediated adhesion relative to wild type peptide 6” value [1] is on record?
Its value is “less active”.

Which “inhibition of ninjurin-mediated adhesion relative to wild type peptide 6” value [1] does the source give for “13: residues 26 to 37 with substitution of Arg32 for Asn32 (SEQ ID NO:18) (PPRWGLNNRPIN; Rat) [Peptide 13]” here?
The value was “less active”.

B1: rat ninjurin (other)
chain: MDPGTEEYELNGDLRPGSPGSPDASPPRWGLRNRPINVNHYANKKSAAESMLDIALLMANASQLKAVVEQGNEFAFFVPLVVLISISLVLQIGVGVLLIFLVKYDLNNPAKHAKLDFLNNLATGLVFIIVVVNIFITAFGVQKPVMDVAPRQ
notes: Full-length rat ninjurin (152 amino acids) expressed from pCMV-ninjurin in stably transfected Jurkat or CHO cells; In protein blots and immunoprecipitations it came from cell or tissue lysates; also called rat ninjurin 1; Nerve Injury Induced protein
Does B1 bind [4]?
Result: binds

B2: ninjurin: Nerve Injury Induced protein, 152 amino acids, rat (SEQ ID NO:4), expressed on transfected cells (protein)
chain: MDPGTEEYELNGDLRPGSPGSPDASPPRWGLRNRPINVNHYANKKSAAESMLDIALLMANASQLKAVVEQGNEFAFFVPLVVLISISLVLQIGVGVLLIFLVKYDLNNPAKHAKLDFLNNLATGLVFIIVVVNIFITAFGVQKPVMDVAPRQ
modifications: Rat
Which results are given for B2?
average neurite length ([2]; neurons grown for 6 hr on CHO cells expressing ninjurin, approximately 50 neurons): 569±134 μm; number of particles (aggregate formation) [5]: decrease in the number of particles with time; aggregate formation ([3]; transfected Jurkat cells, after 1 hr): formation of large aggregates
